Assay [1] concerns human foreskin fibroblasts (HFF). The assay can be described thus: Cytotoxicity assay (IC50 determination), crystal violet staining. The note with it: Fibroblast, 336 h, concentration required to inhibit cellular proliferation by 50%, 96-well, 14 day incubation, crystal violet absorbance 620nm. Format: cell-based. How it is done:
(§1) Newborn human foreskins were obtained immediately post-circumcision and placed in minimal essential medium (MEM) supplemented with vancomycin, fungizone, penicillin and gentamycin (all present at standard concentrations) and maintained for four hours under tissue culture conditions (37°C, 5% CO2). Supplemented MEM was then removed and the foreskin material macerated. Tissue fragments were then washed exhaustively (using supplemented MEM) to remove residual erythrocyte contamination.
The erythrocyte-free cell fragments were then exposed to trypsin solution (0.25%) for 15 min with continuous stirring. […]
HFF were seeded into 96-well tissue culture plates at a concentration of 2.5x10^4 cells/ml (100µl MEM with 10% FBS was used as the culture medium) and maintained under tissue culture conditions for 24H prior to experimentation. […] To the first row of each 96-well plate, 125 µl of control media or experimental drug CT1146-26 or CT1146-28 (initial concentration determined by the overall concentration range desired) was added in triplicate wells. […]
Following the incubation period, medium was removed from all wells and the cells stained with 0.1% crystal violet solution for 30 min followed by several wash cycles to remove residual stain. The crystal violet stained plates were then allowed to air dry for 24H prior to reading well absorbance values (620nm) using a Skatron plate reader. […]

Assay [2] has as its system human cytomegalovirus (CMV). As to the kind of experiment: Plaque reduction assay using semi-solid overlay (EC50 determination). The format is cell-based. The note with it: for EC50: Human betaherpesvirus 5, 336 h, concentration required to inhibit viral cytopathogenicity by 50%, CMV plaques in HFF, agarose overlay, 14 days, drug range 100 to 0.03 µg/ml; for SI: Selectivity Index, SI = IC50/EC50. How it is done: as §1
The erythrocyte-free cell fragments were then exposed to trypsin solution (0.25%) for 15 min with continuous stirring. Tissue fragments were then allowed to settle out of suspension and the supernatant collected and passed through sterile cheesecloth into a flask containing MEM and 10% fetal bovine serum (FBS). The cheesecloth was washed with an additional volume of MEM containing 10% FBS (The flask containing MEM and 10% FBS was maintained on ice throughout the trypsinization procedure). The trypsinization procedure was repeated using fresh trypsin solution, until no additional cell removal from tissue fragments was observed. Cells removed by this process are predominantly human foreskin fibroblasts (HFF).
Cells contained in MEM with 10% FBS were pelleted by centrifugation (≅ 1000 RPM, 4°C, 10 min), the supernatant discarded and the pelleted cells suspended in a minimal volume of MEM with 10% FBS. HFF isolates were then plated into T-25 tissue culture flasks (the number of primary culture flasks used was based on the volume of the recovered cell pellet). HFF isolates were then maintained under tissue culture conditions (37°C, 5% CO2) until confluent. Primary cultures of HFF were sequentially expanded into larger format culture flasks using standard tissue culture procedures. HFF were maintained in the presence of vancomycin and fungizone through passage four.
HFF are plated into 6-well tissue culture plates and maintained under tissue culture conditions for approximately two days prior to use. On the date of assay, experimental drug solutions are prepared as 2X concentrations in 2X MEM. Serial dilutions of experimental drug are then performed (1:5) using 2X MEM. The approximate concentration range for experimental agents being 200 to 0.06 µg/ml. Each drug or control solution was then diluted 1:1 with 0.8% agarose solution. Following dilution with agarose solution, the final experimental drug concentration range was 100 to 0.03 µg/ml, with a final agarose overlay concentration of 0.4%. Viral material (CMV) was diluted in MEM with 10% FBS to yield a concentration of virus producing 20-30 plaques per well. […]
Following incubations, HFF were stained for 4-6H with a 1.5% solution of neutral red. The neutral red/agarose/MEM mixture is aspirated and viral plaques counted using a 10X steriomicroscope. […]
(Plaque reduction counts the foci of infection that form in a cell layer.)

Among the data in patent publication EP0828750B1, “PALLADIUM CATALYZED NUCLEOSIDE MODIFICATION METHODS USING NUCLEOPHILES AND CARBON MONOXIDE” (EC Technology LLC, priority 1995, dated 1996) are IC50, EC50 and SI values, retold here.

Consider `CC(C)NC(=O)c1cn(C2OC(COP(=O)(O)O)C(O)C2O)c(=O)nc1N` (stereo not drawn) [CT1146-26], for which the IC50 in assay [1] was above 100 µg/mL. Moreover, in assay [2], the EC50 is below 0.03 µg/mL and the SI is above 3333.
Compound `CCCCNC(=O)c1cn(C2OC(COP(=O)(O)O)C(O)C2O)c(=O)nc1N` (stereo not drawn) [CT1146-28] had an IC50 in assay [1] above 100 µg/mL. In assay [2], this compound gave an EC50 below 0.03 µg/mL and an SI above 3333.

In general, IC50 refers to the midpoint of a concentration-inhibition curve. Low readings indicate inhibition by little substance, high ones a need for much substance. The term EC50 denotes the midpoint of the concentration-response curve.
